The subject of series [1] is NB4, U937, Raji and RPMI-8226 cells. Kind of series: In vitro cytotoxicity, whole CD13 cell panel. Conditions: for IC50: Homo sapiens. The text has this:
(§1) All tumor cell lines used in this study were obtained from the American Type Culture Collection (ATCC), unless otherwise indicated; BT-474 (ATCC HTB-20, Breast Ductal Carcinoma), SK-BR-3 (ATCC HTB-30, Breast Adenocarcinoma) and HCC-1954 (ATCC CRL-2338, Breast Ductal Carcinoma), all HER2+; MDA-MB-231 (ATCC HTB-26, Breast Adenocarcinoma) and MCF-7 (ATCC HTB-22 Breast Adenocarcinoma, pleural effusion), all HER2-; SK-OV-3 (ATCC HTB-77, Ovary Adenocarcinoma), HER2+; NB-4 (Acute Promyelocytic Leukemia, APL, CD13+, M. Lanotte et al. (1991) NB4, a maturation inducible cell line with t(15;17) marker isolated from a human acute promyelocytic leukemia (M3). Blood 77, 1080-1086), (CD13+) and U937 (ATCC CRL-1 593.2, Histiocytic Lymphoma, CD13+ and CD4+); Raji (ATCC CCL-86, Burkitt's Lymphoma) (CD13−, CD20+, CD5−, and CD4−); RPMI-8226 (ATCC CRM-CCL-155, Multiple Myeloma) (CD13−, CD20−, CD5− and CD4−); Karpas-299 (DSMZ ACC-31, Non-Hodgkin's Lymphoma) (CD20−, CD5+, and CD4+); MOLT-4 (ATCC CRL-1 582, Acute Lymphoblastic Leukemia, CD5+). In addition, the two Raji cell (ATCC CCL-86, Burkitt's Lymphoma) clones used in this study Raji-clone #10 (high CD5 expression) and Raji-clone18 (null CD5 expression), were provided by Dr. Juan M. Zapata (Instituto de Investigaciones Biomedicas “Alberto Sols”, CSIC-UAM, Madrid, Spain). Cells were maintained at 37° C., 5% CO 2 and 95% humidity in Dulbecco's Modified Eagle's Medium (DMEM) (for MCF and MDA-MB-231 cells), RPMI-1640 (for SK-BR-3, HCC-1954, NB-4, U937, Raji, RPMI-8226, Karpas-299, MOLT-4, Raji-clone #10 and Raji-clone #18 cells), RPMI-1640+1% ITS (for BT-474 cells) or McCOyS (for SK-OV-3 cells), all media supplemented with 10% Fetal Calf Serum (FCS) and 100 units/mL penicillin and streptomycin.
(§2) For suspension cells: A standard metabolic assay using MTT (3-(4,5-Dimethylthiazol-2-yl)-2,5-diphenyltetrazolium bromide) was adapted for quantitative measurement of cell growth and cytotoxicity, as described in T. Mosmann (1983) Rapid colorimetric assay for cellular growth and survival: Application to proliferation and cytotoxicity assays. J. Immunol. Meth., 65, 55-63. Briefly, MTT solution was added to the cell cultures at a final concentration of 0.5 mg/mL, and incubated for 1 to 4 hours at 37° C. until formazan crystals are formed. Culture medium is carefully removed from the cell cultures and formazan crystals resuspended in 100 μl DMSO. After mixing to assure solubilization, the quantity of formazan (presumably directly proportional to the number of viable cells) is measured by recording changes in absorbance at 570 nm using a plate reading spectrophotometer. Cell survival was expressed as percentage of control, untreated cell survival.
(§3) The IC50 value refers to the concentration of compound inducing a 50% of cell death as compared to the control cell survival.
The in vitro cytotoxic activity of ADC9 along with the parent cytotoxic Compounds 1 and 4, was evaluated against different human tumor cell lines expressing or not the CD13 receptor, including NB4 and U937 (CD13 positive cells) and Raji and RPMI-8226 (CD13 negative cells). Standard dose-response (DR) curves for 72 hours were performed.

Another series deals with SK-BR-3 cells. Kind of series: In vitro cytotoxicity, SRB assay, 72 h dose-response. Conditions: Homo sapiens, SK-BR-3, 72 h, HER2+; 72 h; read-out: IC50. The series is classed as cell-based.
In another series the test system is U937 cells. Kind of series: In vitro cytotoxicity, MTT assay, 72 h dose-response. The class given is cell-based, human. Conditions: Homo sapiens, U-937, 72 h, CD13+, CD4+, read-out: IC50.
A further series concerns RPMI-8226 cells. The description is as above. The class given is cell-based, human. Conditions: Homo sapiens, RPMI-8226, 72 h, CD13−, CD20−, CD5−, CD4−, read-out: IC50.
In another series the test system is Raji cells. The series is described as above. Conditions: Homo sapiens, Raji, CD13−, CD20+, CD5−, CD4−, read-out: IC50. The class given is cell-based, human.
The next series has as its system HCC-1954 cells. As to the kind of experiment: In vitro cytotoxicity, SRB assay, 72 h dose-response. The class given is cell-based. Conditions: Homo sapiens, HCC1954, 72 h, HER2+; 72 h; read-out: IC50. The source says: (§4) Nature Protocols, 1, 1112-1 116.
For another series, the system named is MDA-MB-231 cells. The series is described as above. Conditions: Homo sapiens, MDA-MB-231, 72 h, HER2−; 72 h; read-out: IC50. The class given is cell-based.
Source text: as §4

The subject of a further series is MCF-7 cells. Described as above. The series is classed as cell-based. Conditions: Homo sapiens, MCF7, 72 h, HER2−; 72 h; read-out: IC50.
Source text: as §4

The next series concerns NB-4 cells. Kind of series: In vitro cytotoxicity, MTT assay, 72 h dose-response. Conditions: Homo sapiens, CD13+. The class given is cell-based.
For series [2], the system named is HCC-1954, SK-BR-3, MDA-MB-231 and MCF-7 cells. As to the kind of experiment: In vitro cytotoxicity, whole breast cancer cell panel. Conditions: for IC50: Homo sapiens.
Source text: as §1
For adherent cells: A colorimetric assay using sulforhodamine B (SRB) was adapted for quantitative measurement of cell growth and cytotoxicity, as described in V. Vichai and K. Kirtikara (2006) Sulforhodamine B colorimetric assay for cytotoxicity screening. Nature Protocols, 1, 1112-1 116. Briefly, cells were seeded in 96-well microtiter plates and allowed to stand for 24 hours in drug-free medium before treatment with vehicle alone or the indicated compounds for 72 hours. For quantification, cells were washed twice with phosphate buffered saline (PBS), fixed for 15 min in 1% glutaraldehyde solution, rinsed twice with PBS, stained in 0.4% SRB-1% acetic acid solution for 30 min, rinsed several times with 1% acetic acid solution and air-dried. SRB was then extracted in 10 mM trizma base solution and the optical density measured at 490 nm in a microplate spectrophotometer. Cell survival was expressed as percentage of control, untreated cell survival.
as §3
Standard dose-response (DR) curves for 72 hours were performed.

Series [3] concerns Raji, RPMI-8226 and Karpas-299 cells. As to the kind of experiment: In vitro cytotoxicity, whole CD20 cell panel. Conditions: Homo sapiens.
Source text: as §1, §2, §3
The in vitro cytotoxic activity of ADC12 along with the parent cytotoxic Compounds 1, 4, and 40, was evaluated was assayed against different human cancer cell lines expressing or not the CD20 antigen, including Raji (CD20 positive cells); RPMI-8226 and Karpas-299 (CD20 negative cells). Standard dose-response (DR) curves for 72 hours were performed.

Series [4] deals with Raji-clone #10 (high CD5 expression). As to the kind of experiment: In vitro cytotoxicity, MTT assay, 72 h dose-response. The class given is cell-based. Conditions: Homo sapiens.
Procedure: (§5) Briefly, MTT solution was added to the cell cultures at a final concentration of 0.5 mg/mL, and incubated for 1 to 4 hours at 37° C. until formazan crystals are formed. Culture medium is carefully removed from the cell cultures and formazan crystals resuspended in 100 μl DMSO. […] Cell survival was expressed as percentage of control, untreated cell survival.
Series [5] concerns Raji-clone #18 (null CD5 expression). Described as above. The series is classed as cell-based. Conditions: Homo sapiens, C#18 (null CD5).
Procedure: as §5
For series [6], the system named is Karpas-299, U937, Raji and RPMI-8226 cells. As to the kind of experiment: In vitro cytotoxicity, whole CD4 cell panel. Conditions: for IC50: Homo sapiens.
Source text: as §1, §2, §3
The in vitro cytotoxic activity of ADC16 along with the parent cytotoxic Compounds 1, 4, and 40, was evaluated against different human cancer cell lines expressing or not the CD4 antigen, including Karpas-299 and U937 (both CD4+); Raji and RPMI-8226 (both CD4−). Standard dose-response (DR) curves for 72 hours were performed.

Where [7] appears, read: read-out: IC50 values across the different cell lines tested (range).
The mark [8] stands for this setting: read-out: mean IC50 value across the whole cell panel.
[9] abbreviates: read-out: IC50 values along the different cell lines tested (range), four breast cell lines.
The mark [10] stands for this setting: read-out: mean IC50 value across the whole cell panel, four breast cell lines.
Setting [11] is: long maleimide containing linker.

The structures appear in SMILES notation. ≈ marks a conversion by molar mass, not a printed value. Where “and” joins values, the source holds several entries; their conditions need not be identical. Equal entries are not always repeated. Where two headings read alike, the source gives them in different places.

Procedure for NB-4 cells: as §5
Procedure for Raji cells: as §5
Source text for SK-BR-3 cells: All tumor cell lines used in this study were obtained from the American Type Culture Collection (ATCC), unless otherwise indicated; BT-474 (ATCC HTB-20, Breast Ductal Carcinoma), SK-BR-3 (ATCC HTB-30, Breast Adenocarcinoma) and HCC-1954 (ATCC CRL-2338, Breast Ductal Carcinoma), all HER2+; MDA-MB-231 (ATCC HTB-26, Breast Adenocarcinoma) and MCF-7 (ATCC HTB-22 Breast Adenocarcinoma, pleural effusion), all HER2-; SK-OV-3 (ATCC HTB-77, Ovary Adenocarcinoma), HER2+; NB-4 (Acute Promyelocytic Leukemia, APL, CD13+, M. Lanotte et al. (1991) NB4, a maturation inducible cell line with t(15;17) marker isolated from a human acute promyelocytic leukemia (M3). […] Cells were maintained at 37° C., 5% CO 2 and 95% humidity in Dulbecco's Modified Eagle's Medium (DMEM) (for MCF and MDA-MB-231 cells), RPMI-1640 (for SK-BR-3, HCC-1954, NB-4, U937, Raji, RPMI-8226, Karpas-299, MOLT-4, Raji-clone #10 and Raji-clone #18 cells), RPMI-1640+1% ITS (for BT-474 cells) or McCOyS (for SK-OV-3 cells), all media supplemented with 10% Fetal Calf Serum (FCS) and 100 units/mL penicillin and streptomycin.
For adherent cells: A colorimetric assay using sulforhodamine B (SRB) was adapted for quantitative measurement of cell growth and cytotoxicity, as described in V. Vichai and K. Kirtikara (2006) Sulforhodamine B colorimetric assay for cytotoxicity screening. […] Briefly, cells were seeded in 96-well microtiter plates and allowed to stand for 24 hours in drug-free medium before treatment with vehicle alone or the indicated compounds for 72 hours. For quantification, cells were washed twice with phosphate buffered saline (PBS), fixed for 15 min in 1% glutaraldehyde solution, rinsed twice with PBS, stained in 0.4% SRB-1% acetic acid solution for 30 min, rinsed several times with 1% acetic acid solution and air-dried. SRB was then extracted in 10 mM trizma base solution and the optical density measured at 490 nm in a microplate spectrophotometer. Cell survival was expressed as percentage of control, untreated cell survival.
Procedure for U937 cells: as §5

With `COC1=CC[C@@H]([C@@H](C)/C=C(C)/C=C\C=C/C(=O)N[C@H](C(=O)N/C=C\C[C@H](C/C=C(\C)Cl)OC(=O)NCCCNC(=O)CCS)C(C)(C)C)OC1=O` [Compound 13], the IC50 is 0.0017 µg/mL to 0.01 µg/mL and 2.7 nM to 14 nM in [1] (setting [7]); 0.0043 µg/mL and 5.7 nM in [1] (setting [8]); 0.000795 µg/mL and 1.06 nM in the series on SK-BR-3 cells; 0.00285 µg/mL and 3.8 nM in the series with U937 cells; 0.0023 µg/mL and 3.06 nM in the series with RPMI-8226 cells; 0.0103 µg/mL and 13.7 nM with Raji cells. For the same molecule, the IC50 is 0.00149 µg/mL and 1.98 nM in the series with HCC-1954 cells; 0.00263 µg/mL and 3.5 nM in the series with MDA-MB-231 cells; 0.00243 µg/mL and 3.23 nM in the series with MCF-7 cells; 0.0017 µg/mL and 2.26 nM with NB-4 cells; 0.795 to 2.63 ng/mL (≈ 1.06 to 3.5 nM) in series [2] (setting [9]); 0.00183 µg/mL and 2.44 nM in series [2] (setting [10]). Besides, the “reduction of cytotoxic activity as compared to Compound 40” value in series [1] (thiol containing tail) is recorded as “less than 1 log”. For the same molecule, the “decrease of cytotoxic activity as compared to Compound 4” value in [2] (thiol containing tail) is given as “about 5 fold”.

Turning to `COC1=CC[C@@H]([C@@H](C)/C=C(C)/C=C\C=C/C(=O)N[C@H](C(=O)N/C=C\C[C@H](C/C=C(\C)Cl)OC(=O)NCCCNC(=O)OCc2ccc(NC(=O)[C@H](CCCNC(N)=O)NC(=O)[C@@H](NC(=O)CCCCCN3C(=O)C=CC3=O)C(C)C)cc2)C(C)(C)C)OC1=O` [Compound 12], the IC50 in [1] (setting [7]) was 0.0044 µg/mL to 0.048 µg/mL and 3.5 nM to 38 nM; in series [1] (setting [8]), 0.02 µg/mL and 16 nM; in the series on SK-BR-3 cells, 0.00905 µg/mL and 7.18 nM; in series [3] (setting [7]), 0.022 µg/mL to 0.067 µg/mL and 18 nM to 55 nM; in [3] (setting [8]), 0.039 µg/mL and 31 nM; in series [4] (C#10 (high CD5)) it was 0.27 µg/mL and 214 nM. The IC50 was 0.215 µM in [4] (clone #10, CD5 expressing); > 792 nM and > 1 µg/mL in series [5]; 0.0076 µg/mL and 6.02 nM in the series with HCC-1954 cells; 0.018 µg/mL and 14.3 nM with MDA-MB-231 cells; 0.0305 µg/mL and 24.2 nM in the series on MCF-7 cells; 0.00445 µg/mL and 3.53 nM with NB-4 cells. Besides, the IC50 in series [6] (setting [7]) is 0.073 µg/mL to 0.41 µg/mL and 58 nM to 320 nM; in series [6] (setting [8]), 0.17 µg/mL and 130 nM; in series [2] (setting [9]), 0.0076 µg/mL to 0.0305 µg/mL and 6.02 nM to 24.2 nM; in [2] (setting [10]), 0.0163 µg/mL and 12.9 nM. For the same molecule, the “decrease of cytotoxic activity as compared to Compound 4” value in series [1] (long linker) is given as around 1 log. The IC20 in series [4] (C#10 (high CD5)) is 0.15 µg/mL and 119 nM; in [5], 0.2 µg/mL and 159 nM. Besides, in [6] (setting [11]), the “reduction of cytotoxic activity as compared to Compound 4” value is listed as around 2 log. In addition, in series [6] (setting [11]), the “reduction of cytotoxic activity as compared to Compound 40” value is around 3 log.

The record behind these values is US12410148B2, “Antibody drug conjugates” (Pharma Mar, S.A., priority 2013, dated 2025).
